Results on 16 compounds are retold here after patent publication US9169231B2, “Anti-obesity agent comprising compound containing benzotropolone ring” (SUNTORY HOLDINGS LIMITED, priority 2009, dated 2015).

Usually IC50 stands for the midpoint of a concentration-inhibition curve.

Like-named read-outs stand apart in the source and are kept apart here.

Holding throughout (type): biochemical
In experiment [1] the target is T1, porcine pancreatic lipase (Sus scrofa, UniProt P00591).
T1 construct: purchased Sigma-Aldrich Corp
T1 sequence (P00591 1-450): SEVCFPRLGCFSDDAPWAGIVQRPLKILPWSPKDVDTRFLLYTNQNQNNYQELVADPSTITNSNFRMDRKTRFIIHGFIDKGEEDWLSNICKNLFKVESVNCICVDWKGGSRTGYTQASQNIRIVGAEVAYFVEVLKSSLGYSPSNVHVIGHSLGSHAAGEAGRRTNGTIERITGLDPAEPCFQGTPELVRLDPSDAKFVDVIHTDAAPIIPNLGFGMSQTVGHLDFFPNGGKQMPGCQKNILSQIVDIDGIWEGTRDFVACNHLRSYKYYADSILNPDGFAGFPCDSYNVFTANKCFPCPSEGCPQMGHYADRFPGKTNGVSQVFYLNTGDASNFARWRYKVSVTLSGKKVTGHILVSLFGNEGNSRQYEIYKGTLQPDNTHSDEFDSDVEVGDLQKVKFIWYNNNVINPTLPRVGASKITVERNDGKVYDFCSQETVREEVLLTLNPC
Briefly: Measurement of lipase inhibitory activity (Example 6; 4-MUO substrate, fluorescence). On the procedure: The measurement of lipase activity was performed by using as a substrate the oleate ester of fluorescent 4-methylumbelliferone (4-MUO; Sigma-Aldrich Corp.) to measure the fluorescence of 4-methylumbelliferone produced by a reaction. […] The following were subjected to an enzymatic measurement: the substrate 4-MUO which was dissolved into a 0.1M DMSO solution followed by dilution of the solution 4000-fold with the above buffer; and as a lipase, porcine pancreatic lipase (Sigma-Aldrich Corp.) which was prepared as a 400 U/ml solution by using the above buffer likewise.
(§1) An enzymatic reaction was initiated by the following steps under 25° C. condition: adding to a 96-well microplate 50 μl of a 4-MUO buffer solution and 25 μl of distilled water (or an aqueous sample solution) for each well; mixing them; and then adding 25 μl of a lipase buffer solution to each well. After a 30-minute reaction, 100 μl of a 0.1M citric acid buffer (pH4.2) was added to terminate the reaction, and the fluorescence of 4-methylumbelliferone (excitation wavelength: 355 nm, fluorescence wavelength: 460 nm) produced by the reaction was measured with a fluorescence plate reader (Fluoroskan Asent CF from Labsystems, Inc.)

The next experiment concerns the target alfa-glucosidase. Briefly: Measurement of alfa-glucosidase inhibitory activity (Example 11; p-nitrophenyl-alfa-D-glucopyranoside, A405). As to the method:
A […] sodium phosphate buffer was prepared by mixing a 0.1M NaH2PO4-2H2O and a 0.1M Na2HPO4.12H2O and adjusting the mixture to pH7.0, and thereto 2 g/L of bovine serum albumin (Nacalai Tesque, Inc., F-V, pH5.2, 96% purity) and 0.2 g/L of NaN3 (Nacalai Tesque, Inc., a special grade reagent) were added. To prepare an enzyme solution, alfa-glucosidase (Wako Pure Chemical Industries, Ltd., yeast-derived, 100 units/mg) was dissolved in the above buffer so as to achieve 0.5 units/mg protein/ml (100 μg/20 ml). To prepare a substrate solution, p-nitrophenyl-alfa-D-glucopyranoside (Nacalai Tesque, Inc., a special grade reagent) was dissolved in the above buffer so as to achieve 5 mM concentration (7.525 mg/5 ml).
Among the samples used for the assays, epigallocatechin-3-O-gallate (Compound 13: EGCG), a positive control, was a product from Wako Pure Chemical Industries, Ltd., and Compounds 1, 3, 4, 5, 11, 12, 14, and 15 were products that were synthesized and purified in Example 1, 2, or 7.
These samples were adjusted so as to obtain 10 mg/ml of DMSO and the solution was diluted 2-fold in 6 steps. Using a 96-well microplate, 45 μL of the enzyme solution was added to 10 μL of the sample solution. After preincubation at 37° C. for 5 minutes, 45 μL of the substrate solution was added and absorbance at 405 nm (A405 nm) was measured. After incubation at 37° C. for 5 minutes, the absorbance A405 nm was measured. Percent inhibition was calculated as a difference in A405 nm from a solution in which only DMSO was added as a control instead of a sample, and two consecutive measurements were performed for activity of each compound.

Experiment [2] addresses T2, porcine pancreatic lipase (Type VI-S) (Sus scrofa, UniProt P00591).
T2 construct: purchased Sigma-Aldrich Corp. Type VI-S
T2 sequence (P00591 1-450): T1 sequence (P00591 1-450)
The experiment can be described thus: Measurement of lipase activity (Example 10; 4-MUO substrate 7.5 μM, increased DMSO). The conditions noted are these: Example 10 method; for IC50: substrate 7.5 μM, 25° C., 30-minute reaction, read-out: Lipase Inhibitory Activity per Mole IC50. As to the method:
The measurement of lipase activity was performed by using as a substrate the oleate ester of fluorescent 4-methylumbelliferone (4-MUO; Sigma-Aldrich Corp.) to measure the fluorescence of 4-methylumbelliferone produced by a reaction. In the measurement, 13 mM Tris-HCl (pH8.0) containing 150 mM NaCl and 1.36 mM CaCl2 was used as a buffer. The following were subjected to an enzymatic measurement: the substrate 4-MUO which was dissolved into a 0.01M DMSO solution followed by dilution of the solution 667-fold with the above buffer; and as a lipase, porcine pancreatic lipase (Sigma-Aldrich Corp.: Type VI-S) which was prepared as a 400 U/ml solution by using the above buffer likewise.
as §1, with “μl of 4-MUO buffer” for “μl of a 4-MUO buffer”, “water (or aqueous sample” for “water (or an aqueous sample”, “each well. […] After a” for “each well. After a”, “μl of 0.1M citric” for “μl of a 0.1M citric”, “from Labsystems, Inc.).” for “from Labsystems, Inc.)”
The inhibitory activities of test samples were determined as IC50 (μM), a sample […] which produces 50% inhibition, relative to the activity of a control (distilled water).

[3] abbreviates: Example 6 method, substrate 12.5 μM, 25° C., 30-minute reaction, read-out: Lipase Inhibitory Activity per mole IC50.

As for `O=C(O)c1cc(O)c(=O)c2c(O)c(O)c(O)cc2c1` [Compound 2, purprogallin carboxylic acid], the IC50 in experiment [1] was 4.16 µM.
As for `O=C(O[C@@H]1Cc2c(O)cc(O)cc2O[C@@H]1c1cc(O)c(=O)c2c(O)c(O)cc([C@@H]3Oc4cc(O)cc(O)c4C[C@H]3OC(=O)c3cc(O)c(=O)c4c(O)c(O)cc([C@H]5Oc6cc(O)cc(O)c6C[C@H]5OC(=O)c5cc(O)c(O)c(O)c5)c4c3)c2c1)c1cc(O)c(O)c(O)c1` (stereo in doubt) [Compound 8, theaflavin digallate trimer 2 (TFdiGA-tri2)], the IC50 in experiment [1] (setting [3]) stood at 0.138 µM.
Regarding `O=c1c(O)cccc2cc(O)c(O)c(O)c12` [Compound 1, purprogallin], the IC50 in experiment [1] (setting [3]) turned out to be 0.413 µM; against alfa-glucosidase (37° C., 5 minutes incubation) it was 1240 µM.
For the compound `O=C(O[C@@H]1Cc2c(O)cc(O)cc2O[C@@H]1c1cc(=O)c(O)c2c(O)c(O)c(O)cc2c1)c1cc(O)c(O)c(O)c1` [Compound 4, epitheaflagallin-3-O-gallate, reference compound], the IC50 worked out at 0.125 µM in experiment [2] and 180 µM against alfa-glucosidase (37° C., 5 minutes incubation).
As for `O=C(O[C@@H]1Cc2c(O)cc(O)cc2O[C@@H]1c1ccc(O)c(O)c1)c1cc(O)c(=O)c2c(O)c(O)c(O)cc2c1` [Compound 12, (2R,3R)-2-(3,4-dihydroxyphenyl)-5,7-dihydroxychroman-3-yl2,3,4,6-tetrahydroxy-5-oxo-5H-benzo[7]annulen-8-carboxylate], in experiment [2], the “Lipase inhibitory activity (in words, compared with EGCG)” value is “stronger activity than a positive control, EGCG”. Further, the IC50 worked out at 0.096 µM in experiment [2]; 0.207 µM in experiment [1] (setting [3]); 159 µM on alfa-glucosidase (37° C., 5 minutes incubation). For the same compound, the “alfa-glucosidase inhibitory activity (in words)” value with alfa-glucosidase was “particularly strong activity”.
With `O=C(O)c1cc(O)c(=O)c2c(O)c(O)cc([C@H]3Oc4cc(O)cc(O)c4C[C@H]3O)c2c1` [Compound 9, epitheaflavic acid], the IC50 in experiment [1] (setting [3]) was 4.63 µM.
Take `O=C(O[C@@H]1Cc2c(O)cc(O)cc2O[C@@H]1c1cc(O)c(=O)c2c(O)c(O)cc([C@@H]3Oc4cc(O)cc(O)c4C[C@H]3OC(=O)c3cc(O)c(O)c(O)c3)c2c1)c1cc(O)c(=O)c2c(O)c(O)cc([C@H]3Oc4cc(O)cc(O)c4C[C@H]3OC(=O)c3cc(O)c(O)c(O)c3)c2c1` (stereo in doubt) [Compound 7, theaflavin digallate trimer 1 (TFdiGA-tri1)]: the IC50 in experiment [1] (setting [3]) was 0.135 µM.
In the case of `O=C(O[C@@H]1Cc2c(O)cc(O)cc2O[C@@H]1c1ccc(O)c(O)c1)c1cc(O)c(=O)c2c(O)c(O)cc([C@H]3Oc4cc(O)cc(O)c4C[C@H]3OC(=O)c3cc(O)c(O)c(O)c3)c2c1` [Compound 5, theaflavate A], the IC50 in experiment [1] (setting [3]) is 0.202 µM; against alfa-glucosidase (37° C., 5 minutes incubation), 116 µM.
On to `O=C(O[C@@H]1Cc2c(O)cc(O)cc2O[C@@H]1c1cc(O)c(=O)c2c(O)c(O)ccc2c1)c1cc(O)c(O)c(O)c1` [Compound 15, EGCG-catechol], for which, in experiment [2], the “Lipase inhibitory activity (in words, compared with EGCG)” value is “stronger activity than a positive control, EGCG” and the IC50 is 0.104 µM. The compound also had an IC50 against alfa-glucosidase (37° C., 5 minutes incubation) of 103 µM.
As for `O=C(O)c1cc(O)c(=O)c2c(O)c(O)cc([C@H]3Oc4cc(O)cc(O)c4C[C@H]3OC(=O)c3cc(O)c(O)c(O)c3)c2c1` [Compound 11, epitheaflavic acid-3-O-gallate], the IC50 in experiment [1] (setting [3]) is 0.266 µM; on alfa-glucosidase (37° C., 5 minutes incubation) it was 287 µM.
Turning to `O=c1c(O)cccc2c([C@H]3Oc4cc(O)cc(O)c4C[C@H]3O)cc(O)c(O)c12` [Compound 10, theaflavanin], the IC50 in experiment [1] (setting [3]) was 0.984 µM.
In the case of `O=C(O[C@@H]1Cc2c(O)cc(O)cc2O[C@@H]1c1cc(O)c(O)c2c(=O)c(O)cccc12)c1cc(O)c(O)c(O)c1` [Compound 14, theaflavanin 3-O-gallate], in experiment [2], the “Lipase inhibitory activity (in words, compared with EGCG)” value is recorded as “stronger activity than a positive control, EGCG” and the IC50 came out at 0.168 µM. Moreover, the “alfa-glucosidase inhibitory activity (in words)” value in the experiment with alfa-glucosidase was “particularly strong activity”. The same compound gave an IC50 against alfa-glucosidase (37° C., 5 minutes incubation) of 196 µM.
As for `Oc1cccc(O)c1O` [pyrogallol, reference compound], the IC50 in experiment [1] (setting [3]) worked out at 17.3 µM.
As to “epitheaflagallin [Compound 3, reference compound]”, in experiment [2], the IC50 amounted to 0.956 µM. Further, the “alfa-glucosidase inhibitory activity IC50” value at alfa-glucosidase (37° C., 5 minutes incubation) is “No”.
For the compound `O=C(O[C@@H]1Cc2c(O)cc(O)cc2O[C@@H]1c1cc(O)c(=O)c2c(O)c(O)cc([C@@H]3Oc4cc(O)cc(O)c4C[C@@H]3O)c2c1)c1cc(O)c(=O)c2c(O)c(O)cc([C@H]3Oc4cc(O)cc(O)c4C[C@H]3O)c2c1` (stereo in doubt) [Compound 6, theadibenzotropolone A], the IC50 in experiment [1] (setting [3]) came to 0.178 µM.
“(−)-epigallocatechin-3-O-gallate [Compound 13, reference compound]”: the IC50 in experiment [2] was 0.349 µM; in experiment [1] (setting [3]), 0.349 µM; on alfa-glucosidase (37° C., 5 minutes incubation) it was 485 µM.
